This is an account of results in paper PMC4915685 (PLoS ONE, 2016).

One series deals with human plasma protein. Description: Plasma protein binding. As to conditions: over the range of 0.1 to 10 μg/mL (unpublished results). The format is in vitro ADME.
For the next series, the system named is T2DM patients. As to conditions: cited from earlier work.
Series [1] concerns the target T1, dog plasma DPP-4 activity (Canis lupus familiaris, UniProt A0A8I3Q2I8).
T1 construct: tissue Kitayama Labes Co., Ltd. (animals); host or cells: beagle dog plasma
Nature of the series: Inhibition of plasma DPP-4 activity, dog plasma (GP-pNA). The format is biochemical.
Description: Male Sprague–Dawley rats (7 weeks old, n = 30) and male beagle dogs (2–5 years old, n = 3) were purchased from CLEA Japan (Tokyo, Japan) and Kitayama Labes Co., Ltd. (Nagano, Japan), respectively. […] Rat blood samples were taken from abdominal vein under ether inhalation anesthesia in anesthetized rats before euthanasia by exsanguination. Dog blood samples were collected from anterior limb veins in conscious dogs that were restrained in a retainer. […] Plasma samples were prepared and stored at -80°C before use.

On the set-up of series [2]: method as in earlier work. The settings on record: 100 mg single dose, 168 hours after administration, Japanese healthy volunteers; cited from earlier work.
Series [3] addresses T2, prolyl endopeptidase (PEP) (Rattus norvegicus, UniProt O70196).
T2 construct: were prepared from rat kidney and brain, respectively; from tissue; host or cells: rat brain
T2 sequence (O70196 1-710): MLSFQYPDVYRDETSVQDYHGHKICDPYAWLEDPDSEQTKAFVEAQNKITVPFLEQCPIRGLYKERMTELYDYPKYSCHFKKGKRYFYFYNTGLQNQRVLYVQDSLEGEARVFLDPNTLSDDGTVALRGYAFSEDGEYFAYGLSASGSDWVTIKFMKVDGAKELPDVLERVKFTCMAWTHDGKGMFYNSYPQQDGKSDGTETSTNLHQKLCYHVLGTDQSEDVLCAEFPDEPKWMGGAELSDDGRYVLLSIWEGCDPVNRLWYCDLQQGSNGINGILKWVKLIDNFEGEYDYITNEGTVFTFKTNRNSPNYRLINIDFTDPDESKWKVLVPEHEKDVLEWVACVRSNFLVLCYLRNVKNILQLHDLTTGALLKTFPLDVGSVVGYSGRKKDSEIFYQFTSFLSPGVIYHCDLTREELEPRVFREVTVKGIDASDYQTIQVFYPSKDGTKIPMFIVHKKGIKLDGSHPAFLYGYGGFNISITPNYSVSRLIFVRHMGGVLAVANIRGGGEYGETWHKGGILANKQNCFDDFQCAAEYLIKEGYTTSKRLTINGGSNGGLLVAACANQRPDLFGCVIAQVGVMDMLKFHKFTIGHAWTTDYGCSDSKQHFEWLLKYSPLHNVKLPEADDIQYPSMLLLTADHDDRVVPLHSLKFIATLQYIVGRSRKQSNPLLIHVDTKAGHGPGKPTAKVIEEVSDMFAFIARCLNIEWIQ
Description: PEP inhibition assay. The series is classed as biochemical.

T1 sequence (A0A8I3Q2I8 1-765): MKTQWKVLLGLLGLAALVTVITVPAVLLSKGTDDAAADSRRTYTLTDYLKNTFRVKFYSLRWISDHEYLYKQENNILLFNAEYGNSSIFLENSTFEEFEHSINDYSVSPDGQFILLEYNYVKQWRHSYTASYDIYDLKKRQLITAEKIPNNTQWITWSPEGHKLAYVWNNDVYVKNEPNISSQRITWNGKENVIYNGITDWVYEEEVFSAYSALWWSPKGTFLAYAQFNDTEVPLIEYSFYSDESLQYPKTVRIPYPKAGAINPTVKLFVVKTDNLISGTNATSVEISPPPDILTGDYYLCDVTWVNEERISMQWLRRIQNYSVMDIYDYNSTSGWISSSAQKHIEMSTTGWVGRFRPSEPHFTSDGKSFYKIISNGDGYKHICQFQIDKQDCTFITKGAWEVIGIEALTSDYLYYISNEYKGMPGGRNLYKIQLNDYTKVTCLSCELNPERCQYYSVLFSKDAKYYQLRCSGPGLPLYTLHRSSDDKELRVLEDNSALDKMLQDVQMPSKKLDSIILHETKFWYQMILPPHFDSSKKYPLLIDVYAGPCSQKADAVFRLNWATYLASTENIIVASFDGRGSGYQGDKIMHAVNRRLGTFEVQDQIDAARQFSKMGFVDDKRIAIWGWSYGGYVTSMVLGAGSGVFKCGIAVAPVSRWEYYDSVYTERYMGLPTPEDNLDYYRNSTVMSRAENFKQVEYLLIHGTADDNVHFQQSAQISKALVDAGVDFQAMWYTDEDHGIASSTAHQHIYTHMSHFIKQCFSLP

For the compound `Cn1c(=O)cc(N2CCC[C@@H](N)C2)n(Cc2ccccc2C#N)c1=O` [alogliptin, 2-[6-(3(R)-aminopiperidin-1-yl)-3-methyl-2,4-dioxo-3,4-dihydro-2H-pyrimidin-1-ylmethyl]benzonitrile, reference compound], the “binding to human plasma protein” value in the series on human plasma protein was 28.2–32.3%.

The IC50 is the concentration at which inhibition is half-maximal. A higher IC50 goes with a need for much substance. Consider `Cn1c(=O)cc(N2CCC[C@@H](N)C2)n(Cc2cc(F)ccc2C#N)c1=O` [trelagliptin, 2-[6-(3(R)-aminopiperidin-1-yl)-3-methyl-2,4-dioxo-3,4-dihydro-2H-pyrimidin-1-ylmethyl]-4-fluorobenzonitrile], for which the “safety in clinical studies” value in the series with T2DM patients (clinical studies) is “no major safety concerns”. Also, the “efficacy in terms of reduction of HbA1c versus alogliptin 25 mg daily dosing” value in the series with T2DM patients (trelagliptin 100 mg weekly dosing, T2DM patients) is given as “non-inferior”. The “binding to human plasma protein” value in the series on human plasma protein is 22.1–27.6%. Moreover, the IC50 in series [1] is 6.2 nM; in series [3], > 100000 nM. Further, the “plasma trelagliptin concentration [mean (SD)]” value in series [2] was 2.12 (0.679) ng/mL.
